Values of other authors in PubChem BioAssay AID1259409 (Chemical Carcinogenesis Research Information System (CCRIS), 2018).
“And” between values parts separate entries of the source, which are not always exact repeats. Equal entries are not always repeated.

Test system: rodent chemically induced tumor inhibition, incidence and multiplicity
Test: CCRIS tumor inhibitor studies
Conditions: Species: MOUSE

## CC1=CCC(=O)O1
Carcinogen: BENZO[A]PYRENE, 50-32-8, Dose [Inhibitor]: 0.034 MMOL/G IN DIET FOR 5 WK (STUDY DURATION: 21 WK), Route [Inhibitor]: ORAL, Strain/Sex: ICR/HA/FEMALE, Target Tissue: Type of Lesion: FORESTOMACH: TUMOR, Dose [Carcinogen]: 1 MG IN 0.2 ML CORN OIL, 2/WK FOR 4 WK STARTING ON D 8 OF EXPERIMENT, Promoter: NONE USED
  tumour outcome (control, treated, inhibition, significance): 95%, 42%, 56%, p<0.01 and 95%, 53%, 44%, p<0.01

## OCC(S)CS (stereo not given)
Carcinogen: TRANS-5-AMINO-3-[2-(5-NITRO-2-FURYL)VINYL]-1,2,4-OXADIAZOLE;SQL8506, 28754-68-9, Carcinogen: TRANS-5-AMINO-3-[2-(5-NITRO-2-FURYL)VINYL]-1,2,4-OXADIAZOLE;SQL8506, 28754-68-9, Dose [Inhibitor]: 80 MG/KG 18 HR BEFORE THE 1ST CARCINOGEN DOSE FOLLOWED BY ADDITIONAL INJECTIONS IMMEDIATELY BEFORE EACH DOSE OF CARCINOG, Route [Inhibitor]: INTRAPERITONEAL, Strain/Sex: CD-1/FEMALE, Target Tissue: Type of Lesion: LYMPHOID TISSUE: NONTHYMIC LYMPHOMA, Dose [Carcinogen]: 1 G/KG 2/D FOR 5 D EVERY 4 WK FOR 3 COURSES OF TREATMENT, Promoter: NONE USED
  tumour outcome (control, treated, inhibition, significance): 8/137 (6%), 1/26 (4%), 33%, not calculated
Carcinogen: TRANS-5-AMINO-3-[2-(5-NITRO-2-FURYL)VINYL]-1,2,4-OXADIAZOLE;SQL8506, 28754-68-9, Carcinogen: TRANS-5-AMINO-3-[2-(5-NITRO-2-FURYL)VINYL]-1,2,4-OXADIAZOLE;SQL8506, 28754-68-9, Dose [Inhibitor]: 80 MG/KG 18 HR BEFORE THE 1ST CARCINOGEN DOSE FOLLOWED BY ADDITIONAL INJECTIONS IMMEDIATELY BEFORE EACH DOSE OF CARCINOG, Route [Inhibitor]: INTRAPERITONEAL, Strain/Sex: CD-1/FEMALE, Target Tissue: Type of Lesion: LYMPHOID TISSUE: THYMIC LYMPHOMA, Dose [Carcinogen]: 1 G/KG 2/D FOR 5 D EVERY 4 WK FOR 3 COURSES OF TREATMENT, Promoter: NONE USED
  tumour outcome (control, treated, inhibition, significance): 22/137 (16%), 4/26 (15%), 6%, not calculated
Carcinogen: TRANS-5-AMINO-3-[2-(5-NITRO-2-FURYL)VINYL]-1,2,4-OXADIAZOLE;SQL8506, 28754-68-9, Carcinogen: TRANS-5-AMINO-3-[2-(5-NITRO-2-FURYL)VINYL]-1,2,4-OXADIAZOLE;SQL8506, 28754-68-9, Dose [Inhibitor]: 80 MG/KG 18 HR BEFORE THE 1ST CARCINOGEN DOSE FOLLOWED BY ADDITIONAL INJECTIONS IMMEDIATELY BEFORE EACH DOSE OF CARCINOG, Route [Inhibitor]: INTRAPERITONEAL, Strain/Sex: CD-1/FEMALE, Target Tissue: Type of Lesion: STOMACH: SQUAMOUS CARCINOMA, Dose [Carcinogen]: 1 G/KG 2/D FOR 5 D EVERY 4 WK FOR 3 COURSES OF TREATMENT, Promoter: NONE USED
  tumour outcome (control, treated, inhibition, significance): 60/137 (44%), 14/26 (54%), -23%, not calculated

## O=C(/C=C/c1ccc(O)c(C2C(c3ccc(O)cc3)Oc3cc(O)ccc3C2c2cc(C3OC(c4ccc(O)cc4)C(C(=O)c4ccc(O)cc4O)C3Cc3ccc(O)cc3)c(O)cc2O)c1)c1ccc(O)cc1O (stereo not given)
Carcinogen: 7,12-DIMETHYLBENZ[A]ANTHRACENE, 57-97-6, Dose [Inhibitor]: 0, 16 NMOL 2/WK 1 HR PRIOR TO EACH PROMOTER DOSE FOR 20 WK (STUDY DURATION: 20 WK), Route [Inhibitor]: DERMAL, Strain/Sex: ICR/FEMALE, Target Tissue: Type of Lesion: SKIN: TUMOR, Dose [Carcinogen]: 0.19 UMOL ONCE, Promoter: 12-0-TETRADECANOYLPHORBOL-13-ACETATE, 16561-29-8
  tumour outcome (control, treated, inhibition, significance): 70%, 45%, 36%, not calculated
